Results taken from patent US7416848B2, “DNA encoding SNORF25 receptor” (H. Lundbeck A/S, priority 1999, dated 2008).
Values belong to the molecule of their own block, whether it stands above or below them.

Experiments:
[1] = biological target: T1, SNORF25 (Homo sapiens, UniProt Q8TDV5); assay: Stimulation of cAMP release by CHO cells stably expressing hSNORF25 receptors; type: cell-based; parameters: expressed in transfected cells; details: for % of PAF(C18) Response: maximum response as % of maximum response produced by PAF(C18) (taken as 100%); for EC50: mean ± S.E.M., at least 3 experiments, CHO cells stably expressing hSNORF25; for stimulation of cAMP: 10 μM, data not shown
T1 sequence (Q8TDV5 1-335): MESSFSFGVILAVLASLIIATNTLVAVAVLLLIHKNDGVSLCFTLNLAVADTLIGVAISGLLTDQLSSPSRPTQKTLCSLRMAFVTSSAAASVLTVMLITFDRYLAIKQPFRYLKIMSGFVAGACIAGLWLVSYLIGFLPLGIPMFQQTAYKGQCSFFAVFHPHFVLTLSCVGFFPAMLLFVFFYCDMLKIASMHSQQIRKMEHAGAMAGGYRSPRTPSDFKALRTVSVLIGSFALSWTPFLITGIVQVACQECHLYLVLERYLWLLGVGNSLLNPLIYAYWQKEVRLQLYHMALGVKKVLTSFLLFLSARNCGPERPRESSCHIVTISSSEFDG
Description: (§1) CHO cells are grown on 150 mm plates in HAM's F-12 medium with supplements (10% bovine calf serum, 4 mM L-glutamine and 100 units/ml penicillin/100 μg/ml streptomycin) at 37° C., 5% CO2. Stock plates of CHO cells are trypsinized and split 1:8 every 3–4 days.
Heterologous DNA can be stably incorporated into host cells, causing the cell to perpetually express a foreign protein. Methods for the delivery of the DNA into the cell are similar to those described above for transient expression but require the co-transfection of an ancillary gene to confer drug resistance on the targeted host cell. The ensuing drug resistance can be exploited to select and maintain cells that have taken up the DNA. An assortment of resistance genes are available including but not restricted to neomycin, kanamycin, and hygromycin. For the purposes of studies concerning the receptor of this invention, stable expression of a heterologous receptor protein is typically carried out in, mammalian cells including but not necessarily restricted to, CHO, HEK293, LM(tk−), etc.
(§2) The receptor-mediated stimulation or inhibition of cyclic AMP (cAMP) formation may be assayed in cells expressing the receptors. According to one method, cells are plated in 96-well plates or other vessels and preincubated in a buffer such as HEPES buffered saline (NaCl (150 mM), CaCl2 (1mM), KCl (5 mM), glucose (10 mM)) supplemented with a phosphodiesterase inhibitor such as 5 mM theophylline, with or without protease inhibitor cocktail (For example, a typical inhibitor cocktail contains 2 μg/ml aprotinin, 0.5 mg/ml leupeptin, and 10 μg/ml phosphoramidon.) for 20 min at 37° C., in 5% CO2. Test compounds are added with or without […] and incubated for an additional 10 min at 37° C. The medium is then aspirated and the reaction stopped by the addition of 100 mM HCl or other methods. The plates are stored at 4° C. for 15 min, and the cAMP content in the stopping solution is measured by radioimmunoassay. Radioactivity may be quantified using a gamma counter equipped with data reduction software. Specific modifications may be performed to optimize the assay for the receptor or to alter the detection method of cAMP.
as §2, with “According” for “The receptor-mediated stimulation or inhibition of cyclic AMP (cAMP) formation may be assayed in cells expressing the receptors. According”, “a second” for “one”, “washed 2 times with” for “plated in 96-well plates or other vessels and preincubated in a buffer such as”, “saline, as described above, and incubated overnight. On the day of the experiment, cells are washed 2 times with HEPES” for “saline (NaCl (150 mM), CaCl2 (1mM), KCl (5 mM), glucose (10 mM))”
Several other closely related analogues of PAF namely Lyso-PAF with different carbon chains also stimulated cAMP.

[2] = biological target: T1, SNORF25; assay: CFTR Cl- currents in Xenopus oocytes co-injected with SNORF25 and CFTR mRNA; type: cell-based; parameters: from linearized plasmids or PCR products containing the complete coding region of the genes; expressed in transfected cells; host or cells: Xenopus laevis oocytes injected with SNORF25 mRNA (with or without CFTR mRNA); details: 10 μM; for CFTR current response: oocytes with SNORF25 and CFTR mRNA (FIG. 12A)
Description: Oocytes are harvested from Xenopus laevis and injected with mRNA transcripts as previously described (Quick and Lester, 1994; Smith et al., 1997). The test receptor of this invention and Gα subunit RNA transcripts are synthesized using the T7 polymerase (“Message Machine,” Ambion) from linearized plasmids or PCR products containing the complete coding region of the genes. Oocytes are injected with 10 ng synthetic receptor RNA and incubated for 3–8 days at 17 degrees. Three to eight hours prior to recording, oocytes are injected with 500 pg promiscuous Gα subunits mRNA in order to observe coupling to Ca^++ activated Cl^− currents.
Each of the compounds was tested at 10 μM. Oocytes expressing SNORF25 generated inward Cl^− currents, consistent with CFTR activation, in response to all four of the ligands.
The activity of SNORF25 was therefore tested in oocytes co-injected with mRNA encoding SNORF25 and mRNA encoding CFTR. In 17 out of 39 of these oocytes an inward Cl^− current (105±20 nA) was measured in response to the application of 10 μM all-trans-retinoic acid (See FIGS. 9A–9C and 10).

[3] = test system: mock-transfected Cos-7 cells; assay: cAMP in mock-transfected Cos-7 cells; type: cell-based; details: preliminary
Description: (§3) COS-7 cells are grown on 150 mm plates in DMEM with supplements (Dulbecco's Modified Eagle Medium with 10% bovine calf serum, 4 mM glutamine, 100 units/ml penicillin/100 μg/ml streptomycin) at 37° C., 5% CO2. Stock plates of COS-7 cells are trypsinized and split 1:6 every 3–4 days.
(§4) A typical protocol for the electroporation method as applied to Cos-7 cells is described as follows. Cells to be used for transfection are split 24 hours prior to the transfection to provide flasks which are subconfluent at the time of transfection. The cells are harvested by trypsinization resuspended in their growth media and counted. 5×10^6 cells are suspended in 300 μl of DMEM and placed into an electroporation cuvette. 8 μg of receptor DNA plus 8 μg of any additional DNA needed (e.g. G protein expression vector, reporter construct, antibiotic resistance marker, mock vector, etc.) is added to the cell suspension, the cuvette is placed into a BioRad Gene Pulser and subjected to an electrical pulse (Gene Pulser settings: 0.25 kV voltage, 950 μF capacitance). […]
(§5) The receptor-mediated stimulation or inhibition of cyclic AMP (cAMP) formation may be assayed in cells expressing the receptors. […] The plates are stored at 4° C. for 15 min, and the cAMP content in the stopping solution is measured by radioimmunoassay. Radioactivity may be quantified using a gamma counter equipped with data reduction software. […]

[4] = biological target: PAF receptors (Homo sapiens, UniProt P25105); details: cloned or native PAF receptors; cited from earlier work
[5] = test system: SNORF25 receptor; assay: cAMP release in Cos-7 cells transiently transfected with SNORF25; type: cell-based; details: Cos-7 cells transiently transfected with SNORF25; preliminary, data not shown
Description: as §3, §4, §5

[6] = test system: isolated rat pancreatic islets; details: cited from earlier work
[7] = test system: untransfected CHO cells; assay: cAMP release in native untransfected CHO cells; type: cell-based, Chinese hamster; details: FIG. 11A
Description: as §1
as §2, with “cAMP. […]” for “cAMP.”

[8] = biological target: B2 adrenergic receptor (B2AR) (Homo sapiens, UniProt P07550); details: 1 μM; holding potential −70 mV (FIG. 9C)
[9] = biological target: T2, SNORF25 receptor (Rattus norvegicus, UniProt Q7TQN8); assay: cAMP release in CHO cells transiently transfected with SNORF25; type: cell-based; details: 10 μM; SNORF25-transfected cells (FIG. 6)
T2 construct: the entire coding region was amplified from Rin14b cell line cDNA and rat genomic DNA; expressed in transfected cells; host or cells: CHO cells, transient (electroporation)
T2 sequence (Q7TQN8 with tags, fused parts or gaps limits assumed): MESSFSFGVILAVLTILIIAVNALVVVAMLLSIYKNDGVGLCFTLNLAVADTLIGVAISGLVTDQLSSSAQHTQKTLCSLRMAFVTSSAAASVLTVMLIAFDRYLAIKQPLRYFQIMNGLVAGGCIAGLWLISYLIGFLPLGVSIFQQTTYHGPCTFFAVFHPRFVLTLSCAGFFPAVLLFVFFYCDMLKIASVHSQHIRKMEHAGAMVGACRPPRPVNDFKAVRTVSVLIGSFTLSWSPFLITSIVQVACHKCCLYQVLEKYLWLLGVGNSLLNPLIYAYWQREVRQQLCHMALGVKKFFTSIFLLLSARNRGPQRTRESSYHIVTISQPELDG
Description: as §1, §4, §5

Chain of PAF receptors (P25105 whole entry): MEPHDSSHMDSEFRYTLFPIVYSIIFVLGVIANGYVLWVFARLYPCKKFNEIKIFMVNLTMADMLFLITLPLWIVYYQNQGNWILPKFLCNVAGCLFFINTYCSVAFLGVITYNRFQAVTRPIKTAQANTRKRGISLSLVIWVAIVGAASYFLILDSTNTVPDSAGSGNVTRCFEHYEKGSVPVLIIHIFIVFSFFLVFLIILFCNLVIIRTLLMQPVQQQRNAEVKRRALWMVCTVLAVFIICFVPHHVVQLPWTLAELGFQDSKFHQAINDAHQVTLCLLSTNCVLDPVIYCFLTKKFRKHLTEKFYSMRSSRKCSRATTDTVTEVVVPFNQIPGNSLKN
Chain of B2 adrenergic receptor (B2AR) (P07550 whole entry, species assumed): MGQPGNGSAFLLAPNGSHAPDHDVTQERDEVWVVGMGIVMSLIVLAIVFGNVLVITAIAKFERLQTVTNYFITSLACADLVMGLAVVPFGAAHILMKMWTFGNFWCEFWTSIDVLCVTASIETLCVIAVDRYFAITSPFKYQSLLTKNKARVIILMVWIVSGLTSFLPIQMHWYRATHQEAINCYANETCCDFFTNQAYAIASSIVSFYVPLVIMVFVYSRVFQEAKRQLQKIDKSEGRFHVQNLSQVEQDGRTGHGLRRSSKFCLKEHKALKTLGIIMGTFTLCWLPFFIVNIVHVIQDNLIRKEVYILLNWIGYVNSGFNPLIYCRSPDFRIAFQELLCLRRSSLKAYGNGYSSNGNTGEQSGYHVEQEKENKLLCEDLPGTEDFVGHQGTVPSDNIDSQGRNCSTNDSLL

Molecule: CCCCCCCCCCCCCCCCOC[C@@H](O)COP(=O)([O-])OCC[N+](C)(C)C [Lyso-PAF(C16)]
- % of PAF(C18) Response [1]: 120%
- EC50 [1]: 3.48 ± 1.13 µM
- inward Cl- current amplitude ([2]; oocytes with SNORF25 and CFTR mRNA): 61.7±7.8 nA
- CFTR current response [2]: robust responses

- % of PAF(C18) Response [1]: 70%
- EC50 [1]: 5.45 ± 2.63 µM
- CFTR current response [2]: robust responses
Molecule: CCCCCCCCCCCCCCCCCCOC[C@@H](O)COP(=O)([O-])OCC[N+](C)(C)C [Lyso-PAF(C18)]

- stimulation of cAMP [1]: no stimulation of cAMP
Molecule: CC1=C(/C=C/C(C)=C/C=C/C(C)=C/C=C/C=C(C)/C=C/C=C(C)/C=C/C2=C(C)CCCC2(C)C)C(C)(C)CCC1 [Atb carotene]

Molecule: C=C1CC[C@H](O)C/C1=C/C=C1\CCC[C@]2(C)[C@@H]([C@H](C)CCCC(C)C)CC[C@@H]12 [vitamin D3]
- stimulation of cAMP [1]: no stimulation of cAMP

- stimulation of cAMP [1]: no stimulation of cAMP
Molecule: vitamin E

Molecule: 1-O-alkyl-2-acetyl-sn-glycero-3-phosphocholine [PAF]
- stimulation of cAMP levels in mock-transfected cells [3]: not mock-transfected cells
- potency / activation at typical PAF receptors [4]: nanomolar potencies
- Emax of cAMP response ([1]; CHO cells expressing SNORF25 (FIG. 11A)): 200–400 % basal
- stimulation of cAMP levels [5]: 4–5 fold
- potency in inducing insulin secretion relative to lyso-PAF [6]: nearly equipotent to lyso-PAF
- cAMP response in untransfected CHO cells [7]: No response

Molecule: CCCCCCCCCCCCCCCCOC[C@@H](O)COP(=O)([O-])OCC[N+](C)(C)C [lyso-PAF]
- potency / activation at typical PAF receptors [4]: not activated
- EC50 ([6]; basal (1.7 mM) and stimulatory (16.7 mM) glucose, read-out: EC50 of insulin release): ~100 µM

- stimulation of cAMP [1]: no stimulation of cAMP
Molecule: CC(C)=CCC/C(C)=C/C=C/C(C)=C/C=C/C(C)=C/C=C/C=C(C)/C=C/C=C(C)/C=C/C=C(\C)CCC=C(C)C [licopene]

- stimulation of cAMP [1]: no stimulation of cAMP
Molecule: CCCCC/C=C\C/C=C\C/C=C\C/C=C\CCCC(=O)O [AA]

Molecule: CNC[C@H](O)c1ccc(O)c(O)c1 [epinephrine]
- CFTR current [8]: evokes a similar current

- increase in cAMP [9]: failed to produce an increase in cAMP
Molecule: CC1=C(/C=C/C(C)=C/C=C/C(C)=C/CO)C(C)(C)CCC1 [All-trans retinol, all-trans-retinol]

Molecule: PAF(C16)
- % of PAF(C18) Response [1]: 110%
- CFTR current response [2]: robust responses
